Results as given in patent US20070059720A9 (priority 2004, published 2007).

What was measured:
ERα = test: Immunoblot of phospho-S118 ERα and total ERα in MCF-7 transfectants; type: cell-based, human; conditions: for total ERα protein level: control transfected and MKP3 overexpressing cells
Description: Cells grown in 100 mm dishes were starved in phenol red-free (PRF), serum-free MEM (Specialty Media, Phillipsburg, N.J.) for 48 hours, and were then treated for 2 hours with vehicle (ethanol), estrogen (100 nM, 20), or OHT (100 nM). After treatment, cells were rinsed twice with ice-cold phosphate-buffered saline (PBS) and were then lysed immediately with 200 μl of cell lysis buffer (20 mM Tris HCl, pH 7.4, 150 mM NaCl, 1 mM B-glycerophosphate, 1 mM sodium orthovanadate, and 10% glycerol plus 1:100 proteinase inhibitor cocktail III) (Calbiochem, LaJolla, Calif.) per 100 mm tissue culture. The cell lysates were cleared by centrifugation at 16,100×g for 10 minutes at 4° C. Protein concentration was determined with the BCA Protein Assay kit (Pierce, Rockfold, Ill.) according to the manufacturer's directions. Equal amount of cell extracts were resolved under denaturing conditions by electrophoresis in 8-10% polyacrylamide gels containing sodium dodecyl sulfate (SDS-PAGE), and transferred to nitrocellulose membranes by electroblotting (Schleicher & Schuell, Keene, NH). After blocking of the transferred nitrocellulose membrane with TBST (20 mM Tris pH 7.6, 150 mM NaCl, 0.1% Tween-20) supplemented with 5% non-fat milk for 1 hour at room temperature, the membrane was incubated with primary antibodies either for 1 hour at room temperature (anti-ERα, 1:100 dilution; anti-AIB1, 1:100 dilution; anti-ERK2, 1:500 dilution; anti-Cyclin D1,1:500 dilution; anti-PR, C-19, 1:200 dilution; anti-p190, 1:1000 dilution; anti-V5, 1:5000 dilution), or overnight at 4° C. (anti-phospho MAPK, 1:1000 dilution; anti-phosphor-Ser118-ERα; 1:1000 dilution; MAPK p42/44, 1:1000 dilution), incubated with secondary antibodies for 1 hour at room temperature and then developed with Enhanced Chemiluminescence Reagents (Amersham Pharmacia Biotech, Piscataway, N.J.).

MKP3 = biological target: T1, MKP3 (Homo sapiens, UniProt Q16828); test: Phosphatase assay with pNPP on V5 immunoprecipitates of treated MKP3 cells; type: biochemical; conditions: MKP3 transfectants treated 2 hours; relative to control-treated (intermediate)
T1 construct: expressed in transfected cells
T1 sequence (Q16828 1-381): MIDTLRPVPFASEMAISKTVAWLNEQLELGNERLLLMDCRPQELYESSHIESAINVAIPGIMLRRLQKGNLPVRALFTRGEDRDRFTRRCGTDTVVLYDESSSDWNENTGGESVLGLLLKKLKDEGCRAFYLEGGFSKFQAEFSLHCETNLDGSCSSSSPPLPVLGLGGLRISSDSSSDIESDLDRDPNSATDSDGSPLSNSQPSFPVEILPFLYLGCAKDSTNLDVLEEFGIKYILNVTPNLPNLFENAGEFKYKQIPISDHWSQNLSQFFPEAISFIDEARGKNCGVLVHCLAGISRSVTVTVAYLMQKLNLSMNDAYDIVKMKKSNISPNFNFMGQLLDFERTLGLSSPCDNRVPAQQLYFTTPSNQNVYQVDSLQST
Description: MKP3-overexpressing cells and control vector transfected cells were treated as described above with ethanol, E2, or 4-OH-Tam, and lysed in buffer B containing 20 mM Tris-HCl (pH 7.0), 150 mM NaCl, 1% Triton X-100, 0.25 M sucrose, 1 mM EDTA, 1 mM EGTA, 0.1% β-mercaptoethanol, 1 mM PMSF, and 1 μg/ml leupeptin. The cell lysates were cleared and the protein concentrations were determined as detailed above. 300 μg of cell lysate at 1 μg/μl was immunoprecipitated by the addition of 1 μg anti-V5 antiserum, and 20 μl 50% protein G slurry. […] The reactions were then quenched by the addition of 20 μl 5N NaOH, and pNPP hydrolysis was measured at 405 nm. […] The amount of product p-nitrophenol was determined from the absorbance at 405 nm. […]
The observed changes in pMAPK levels in MKP3 overexpressing cells was further characterized. […] Using the artificial substrate pNPP to measure endogenous phosphatase activity, there was an inverse relationship between measured phosphatase activity and pMAPK levels in the MKP3 transfectants. […] There were no observed changes in the ability of MKP3 to bind to MAPK, as measured by co-immunoprecipitation and immunoblot analysis (FIG. 5H). When the levels of MKP3-bound ERK2 were compared between the different hormonal treatments, no differences were detected (C, E, T, IP:V5 lanes). […]

| SMILES | total ERα protein level (ERα) | MKP3 phosphatase activity (pNPP hydrolysis) (MKP3) | phosphorylation at ERα serine 118 (ERα; MKP3 transfectants, 2 hours) |
| --- | --- | --- | --- |
| C[C@]12CC[C@@H]3c4ccc(O)cc4CC[C@H]3[C@@H]1CC[C@@H]2O [E2, 17β-Estradiol] | Down regulation | highest | – |
| CC/C(=C(\c1ccccc1)c1ccc(OCCN(C)C)cc1)c1ccccc1 [Tam, tamoxifen] | stabilization | lowest | highly induced |
